Assay results: PMC12272249, “Engineering high-efficiency matriptase substrates using E. coli display for applications in prodrug activation” (Cell Reports Methods, 2025)
Where “and” joins values, the source holds several entries; their conditions need not be identical. Equal entries are not always repeated. Where two headings read alike, the source gives them in different places.

Tests used:
[1] = target: T1, matriptase (Homo sapiens, UniProt Q9Y5Y6); test: Cleavage of soluble substrates in affibody-ABD format, SDS-PAGE; assay type: biochemical; settings: 37°C; for cleavage: affibody-ABD fusion 50 μg/mL in PBS, SDS-PAGE densitometry (ImageJ)
T1 construct: purchased R&D Systems (Bio-Techne) 3946-SEB
T1 sequence (Q9Y5Y6 615-855 limits assumed): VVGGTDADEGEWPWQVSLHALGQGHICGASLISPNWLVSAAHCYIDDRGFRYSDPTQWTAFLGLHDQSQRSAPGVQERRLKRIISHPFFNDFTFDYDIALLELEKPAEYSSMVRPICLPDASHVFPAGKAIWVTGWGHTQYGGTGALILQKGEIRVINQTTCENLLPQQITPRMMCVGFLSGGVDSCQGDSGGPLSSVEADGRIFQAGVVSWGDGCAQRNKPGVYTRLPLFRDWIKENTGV
Protocol: Affibody-ABD substrates (50 μg/mL in PBS) were treated with 1, 10, or 50 nM matriptase at 37°C for 10, 30, or 60 min. Reactions were quenched by adding SDS loading buffer (31.2 mM Tris-HCl, pH 6.8, 1% SDS, 12.5% glycerol, 0.01% bromophenol blue, 5 mM TCEP) and heating at 90°C for 10 min. Samples were analyzed by SDS-PAGE as above. High-resolution gel images (600 dpi) were analyzed using ImageJ (v1.54i). Band intensities were quantified to assess the fraction of cleaved vs. intact substrate. Data were processed in Microsoft Excel and visualized with GraphPad Prism 10.

[2] = target: T1, matriptase; test: E. coli display cleavage reporter assay, flow cytometry, matriptase treatment; assay type: biochemical; settings: for cleavage reporter signal of matriptase-treated compared to untreated cells / time to complete cleavage: E. coli-displayed substrate; for cleavage reporter signal of matriptase-treated compared to untreated cells: 100 nM matriptase, 30 min, 37°C, n = 3; for time to complete cleavage: flow cytometry; for relative cleavage efficiency group (high, medium, low): E. coli-displayed substrate, 1, 10, 25 and 50 nM matriptase over 90 min
[3] = target: TEV protease (Tobacco etch virus, UniProt P04517); test: E. coli display cleavage reporter assay, flow cytometry, TEV protease treatment; settings: E. coli-displayed substrate, 100 nM TEV, 30 min, 30°C, n = 3
[4] = target: urokinase-type plasminogen activator (uPA) (Homo sapiens, UniProt P00749); test: FRET substrate stability against uPA; assay type: in vitro ADME; settings: 30 μM Abz/Dnp peptide, 10 nM uPA, appropriate buffer, 37°C, 100 min (6,000 s), fluorescence, three replicates
Protocol: (§1) (cysteine protease), urokinase plasminogen[36] (uPA; serine protease), and MMP-2[37] (matrix metalloprotease), respectively.
(§2) Initial velocity (V0) was calculated from early linear slopes. […] Fluorescence was recorded for 6000 s.

[5] = target: T2, legumain (Homo sapiens, UniProt Q99538); test: FRET substrate stability against legumain; assay type: in vitro ADME; settings: 30 μM Abz/Dnp peptide, 10 nM legumain, appropriate buffer, 37°C, 100 min (6,000 s), fluorescence, three replicates
T2 construct: purchased R&D Systems (Bio-Techne) 2199-CY
T2 sequence (Q99538 18-433): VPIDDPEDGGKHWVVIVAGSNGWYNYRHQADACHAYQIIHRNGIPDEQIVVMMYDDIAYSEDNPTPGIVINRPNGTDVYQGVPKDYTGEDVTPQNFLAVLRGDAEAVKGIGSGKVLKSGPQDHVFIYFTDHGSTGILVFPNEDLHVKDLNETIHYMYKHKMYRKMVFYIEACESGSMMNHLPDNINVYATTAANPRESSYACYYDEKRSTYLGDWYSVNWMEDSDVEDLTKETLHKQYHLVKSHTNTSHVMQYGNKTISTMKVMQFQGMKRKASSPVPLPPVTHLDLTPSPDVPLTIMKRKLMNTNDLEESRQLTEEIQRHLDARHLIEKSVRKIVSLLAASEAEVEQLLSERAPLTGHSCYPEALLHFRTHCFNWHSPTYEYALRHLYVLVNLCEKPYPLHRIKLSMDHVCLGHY
Protocol: as §1, §2

[6] = target: T1, matriptase; test: FRET-based kinetic analysis of matriptase cleavage; assay type: biochemical; settings: 10 nM matriptase; for substrate cleavage by matriptase under identical conditions: 30 μM Abz/Dnp peptide, 37°C, 6,000 s, three replicates; for Vmax / Km / kcat/KM / kcat: Abz/Dnp-labelled 6-mer peptide, PBS, 37°C, n = 3; for Vmax / Km / kcat: Michaelis-Menten fit; for Vmax / kcat/KM / kcat: average ± SD; for kcat: serial dilution of substrate, 90 min, Ex 320/Em 420 nm
[7] = target: T1, matriptase; assay type: biochemical
[8] = target: T1, matriptase; settings: previously reported value; cited from earlier work
Protocol: The most promising newly discovered substrates (MtpB9, MtpC5, and MtpC9), along with control substrates, were chemically synthesized and linked to 2-aminobenzoyl (Abz) and 2,4-dinitrophenyl (Dnp), a standard fluorophore/quencher combination used in FRET assays (Figure 4A). A serial dilution of the substrates (ranging from 120 to 1.75 μM) was used to monitor matriptase cleavage activity. The reaction was tracked by measuring the Abz fluorescence continuously for 90 min. Kinetic parameters were calculated by fitting the cleavage rates to substrate concentrations using the Michaelis-Menten equati ...

Chain of TEV protease (P04517 2038-2279): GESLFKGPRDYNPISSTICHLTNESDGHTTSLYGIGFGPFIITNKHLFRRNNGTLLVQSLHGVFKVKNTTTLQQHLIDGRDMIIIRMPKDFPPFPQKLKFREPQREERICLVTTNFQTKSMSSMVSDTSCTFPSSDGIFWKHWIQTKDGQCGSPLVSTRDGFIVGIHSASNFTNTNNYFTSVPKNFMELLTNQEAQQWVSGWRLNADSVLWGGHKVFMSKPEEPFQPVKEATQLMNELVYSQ

Substance	substrate cleavage by uPA [4]	substrate cleavage by legumain [5]	time to complete cleavage ([2]; 10 nM matriptase) [min]	time to complete cleavage ([2]; 25 nM matriptase) [min]	relative cleavage efficiency group (high, medium, low) [2]	substrate cleavage by matriptase under identical conditions [6]	Vmax [6] [µM/s]	Km [6] [µM]	kcat/KM [6]	kcat [6] [s⁻¹]	time to complete cleavage [7] [min]	further results
ENLYFQG [TEV-control, TEV protease substrate, non-cleavable control for matriptase, reference compound]	No detectable cleavage	No detectable cleavage										cleavage under any tested conditions ([1]; affibody-ABD fusion, 1, 10 or 50 nM matriptase, 10, 30 or 60 min, SDS-PAGE): no cleavage; cleavage reporter signal of matriptase-treated compared to untreated cells [2]: No significant difference; cleavage reporter signal of TEV-treated compared to untreated cells [3]: significantly lower signals
GAKSRR [MtpB9]	No detectable substrate cleavage	No detectable substrate cleavage	60	≤ 30	high	cleavage was observed	0.04 ± 0.0007	18.7	2.3E+05 ± 3,948 M^−1 s^−1	4.4 ± 0.07	≤ 30	
HYKGRK [MtpC9]	No detectable substrate cleavage	No detectable substrate cleavage	60	≤ 30	high	cleavage was observed	0.06 ± 0.0021	29.1	1.9E+05 ± 7,099 M^−1 s^−1	5.6 ± 0.21	≤ 30	
LKRLMR [MtpA6]					low							
LSGRSDNH [Mtp-control, reference compound]	No detectable cleavage	No detectable cleavage					0.02 ± 0.0057	191	1.28E+04 ± 2,969 M^−1 s^−1 and 1.3E+04 ± 2,969 M^−1 s^−1	2.5 ± 0.57		cleavage ([1]; 50 nM matriptase, 1 h): 96%; cleavage reporter signal of matriptase-treated compared to untreated cells [2]: significantly lower signals; kcat/KM in the previous study [8]: 2200 M⁻¹ s⁻¹; cleavage reporter signal of TEV-treated compared to untreated cells [3]: No significant difference
MGRSFY [MtpB11]					medium							
MKRKAR [MtpC10]					medium							
PFKRQL [MtpC12]					low							
VPRGRR [MtpC5]	No detectable substrate cleavage	No detectable substrate cleavage	60	≤ 30	high	cleavage was observed	0.06 ± 0.0005	12.5	5.13E+05 ± 3,910 M^−1 s^−1 and 5.1E+05 ± 3,910 M^−1 s^−1	6.4 ± 0.05	≤ 30	cleavage ([1]; 1 nM matriptase, 10 min, two replicates): approximately 86%
